# Where two headings read alike, the source gives them in different places. Numbered stars: 1 amine (or outer) side, 2 acyl side, 3 side chain; on linkers, the order of the positions; unused ones are H or OH. Bridge positions count the residues as written; N and C are the ends. Square brackets hold non-standard residues; d marks the D form. Peptide text beside a SMILES is read from it. I, II: the chains in the order shown. * marks the point of attachment. X1 = O=C(CCN1C(=O)CC([*:1])C1=O)NCCOCCOCCOCCOCCOCCOCCOCCOCCOCCOCCOCCNC(=O)CCN1C(=O)CC([*:2])C1=O; X2 = O=C(CCN1C(=O)CC([*:1])C1=O)NCCCOCCOCCOCCCNC(=O)CCN1C(=O)CC([*:2])C1=O; ClAc = O=C(CCl)*
# How the values were obtained:
# [1] = test system: C2C12 myotubes (Agrin-induced AChR clusters); test: Agrin-induced AChR clusters in myotubes with tyrosine kinase inhibitors; format: cell-based, mouse; conditions: 10 pM recombinant rat agrin, inhibitor (3 nM) added simultaneously, 20 hours; for MuSK inhibitory effects: presumed
# Description: The mouse myoblast-derived cell line C2C12 (CRL-1772) was purchased from the American Type Culture Collection and used. For subculture, Dulbecco's Modified Eagle Medium (DMEM, high glucose, GlutaMAX supplement, pyruvate; GIBCO) supplemented with 20% fetal bovine serum (FBS; GIBCO) was used. For passage, after the culture medium was removed by suction, adherent cells were washed with phosphate buffered saline (PBS(-)), and HBSS (GIBCO) containing no Mg^2+ and Ca^2+ and containing 0.25% trypsin and 1 mM ethylenediaminetetraacetic acid was added, and the mixture was reacted in a CO2 incubator (37°C, 5% CO2) for 5 minutes. The detached cells were collected and then centrifuged at 1000 rpm at 4°C for 5 minutes (Sorvall X4R Pro, Thermo Fisher Scientific Inc.). After the supernatant was removed by suction, the cells were suspended in fresh culture medium, and 100 µL was seeded into a 96-well plate (BioCoat Collagen I 96-well Black/Clear plate, Corning Inc.) and cultured in a CO2 incubator (37°C, 5% CO2) until reaching confluence, typically within 72 hours. Subsequently, the culture medium was removed and the first medium change was performed with DMEM containing 2% horse serum (GIBCO) for induction of myotube cell differentiation.
# A differentiation medium supplemented with an appropriate amount of the homodimer of the cyclic peptide MuSK7 (MuSK7 PEG11 dimer) was prepared in advance in a 96-well plate (Nunclon Δ Surface, 167008, Nunc), and used at 100 µL/well at the time of the second medium change in the process of inducing differentiation into myotubes. 20 hours after addition of the homodimer of the cyclic peptide MuSK7, the medium was removed, the cells were washed with PBS(-), and then fixed at room temperature for 15 minutes with PBS(-) containing 4% formaldehyde. After washing several times with 1% BSA-PBS(-), fluorescently labeled α-bungarotoxin (α-Btx, Alexa Fluor 488 conjugate; Invitrogen) was added to 1% BSA-PBS(-) at a final concentration of 100 nM, and after adding this to the wells, the mixture was allowed to stand at room temperature under a light-shielded condition for 30 minutes. After washing the cells several times with 1% BSA-PBS(-), 100 µL of PBS(-) was added to each well, and fluorescence observation was performed using a fluorescence imaging device. For observation of fluorescently labeled AChR clusters, an EVOS M7000 imaging system (Thermo Fisher Scientific Inc.) was used. During fluorescence image observation, a 10× objective lens was used, and tiff images of an area equivalent to 1 mm^2 were obtained. […] The average number of AChR clusters counted from the three tiff images derived from the same well was calculated and drawn on a graph.
# MuSK inhibitor candidates were searched in the KinaseNET database (http://www.kinasenet.ca/) published as an open resource by Kinexus Bioinformatics Corporation (Canada), and three tyrosine kinase inhibitors (AST-487, Foretinib, and Sorafenib) were identified. Next, groups were prepared in which 10 pM recombinant rat agrin protein (550-AG, R&D Systems) derived from C2C12 myotubes was added alone, or in which each tyrosine kinase inhibitor (3 nM) was added simultaneously, and detection and observation of Agrin-induced AChR clusters were performed 20 hours after compound addition (five types, Crizotinib, Linifanib, AST-1306, Dovitinib, and BMS-754807, were used as non-MuSK inhibitory tyrosine kinase inhibitors).
# [2] = test system: mouse myoblast-derived cell line C2C12; test: Induction of AChR clusters in myotube cells and quantitative analysis (fluorescent α-bungarotoxin); format: cell-based; conditions: 20 hours after addition
# Description: The mouse myoblast-derived cell line C2C12 (CRL-1772) was purchased from the American Type Culture Collection and used. For subculture, Dulbecco's Modified Eagle Medium (DMEM, high glucose, GlutaMAX supplement, pyruvate; GIBCO) supplemented with 20% fetal bovine serum (FBS; GIBCO) was used. For passage, after the culture medium was removed by suction, adherent cells were washed with phosphate buffered saline (PBS(-)), and HBSS (GIBCO) containing no Mg^2+ and Ca^2+ and containing 0.25% trypsin and 1 mM ethylenediaminetetraacetic acid was added, and the mixture was reacted in a CO2 incubator (37°C, 5% CO2) for 5 minutes. […]
# After washing several times with 1% BSA-PBS(-), fluorescently labeled α-bungarotoxin (α-Btx, Alexa Fluor 488 conjugate; Invitrogen) was added to 1% BSA-PBS(-) at a final concentration of 100 nM, and after adding this to the wells, the mixture was allowed to stand at room temperature under a light-shielded condition for 30 minutes. After washing the cells several times with 1% BSA-PBS(-), 100 µL of PBS(-) was added to each well, and fluorescence observation was performed using a fluorescence imaging device. […] During fluorescence image observation, a 10× objective lens was used, and tiff images of an area equivalent to 1 mm^2 were obtained. […] The average number of AChR clusters counted from the three tiff images derived from the same well was calculated and drawn on a graph.
# human MuSK = target: T1, human MuSK (Homo sapiens, UniProt O15146); test: SPR binding activity test to human MuSK (Biacore)
# T1 construct: DNA corresponding to the extracellular portion (amino acids 1-493) was amplified by a PCR method; made in house; host or cells: Expi293F cells
# T1 sequence (O15146 24-493): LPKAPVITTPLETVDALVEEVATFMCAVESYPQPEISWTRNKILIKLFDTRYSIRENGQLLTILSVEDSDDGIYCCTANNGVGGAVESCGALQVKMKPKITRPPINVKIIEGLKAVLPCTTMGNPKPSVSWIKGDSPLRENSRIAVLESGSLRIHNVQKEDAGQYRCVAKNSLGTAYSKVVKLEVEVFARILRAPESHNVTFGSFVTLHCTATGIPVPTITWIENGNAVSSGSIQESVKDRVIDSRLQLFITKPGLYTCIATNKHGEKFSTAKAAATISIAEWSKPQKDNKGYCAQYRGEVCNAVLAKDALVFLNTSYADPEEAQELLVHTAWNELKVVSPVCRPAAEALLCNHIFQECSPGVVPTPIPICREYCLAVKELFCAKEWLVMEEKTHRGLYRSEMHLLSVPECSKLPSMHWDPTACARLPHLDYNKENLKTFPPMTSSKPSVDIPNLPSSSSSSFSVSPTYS
# Description: The human MuSK protein (extracellular portion) was prepared as a recombinant protein as follows. Using a Flexi clone (FXC31275, Promega Corporation) encoding Human MuSK isoform 1 precursor (NCBI Reference Sequence: NP_005583.1) as a template, DNA corresponding to the extracellular portion (amino acids 1-493) was amplified by a PCR method. XhoI and EcoRI restriction enzyme recognition sequences were added to both the 5' and 3' ends of the amplified DNA sequence, and these were used for insertion into the multiple cloning site of a pCAG-Neo hIgG1-Fc plasmid (Fujifilm Wako Pure Chemical Corporation). This plasmid (pCAG-Neo hMuSK-Fc) enables expression of a chimeric protein of the secretory human MuSK extracellular portion and human IgG1 Fc (hMuSK-Fc; molecular weight of approximately 200 kDa) in animal cells. In practice, ExpiFectamine 293 reagent (Invitrogen) was used to transfect the pCAG-Neo hMuSK-Fc plasmid into Expi293F cells (Invitrogen), and shaking culture was carried out (for 6 days) in an incubator containing 8% CO2. Next, the culture supernatant was collected, centrifuged, and sterilized by filtration through a 0.22 µm filter. The obtained culture supernatant was subjected to Protein G purification, and finally, a purified hMuSK-Fc sample with 99.96% purity (AKTA-FPLC analysis) was obtained.
# The strength of binding between MuSK and the cyclic peptides was evaluated by quantitatively measuring the binding kinetics (binding affinity (dissociation constant) KD) of the cyclic peptides to MuSK immobilized on a sensor chip via an Fc tag, using surface plasmon resonance (SPR).
# According to the standard immobilization protocol provided by the manufacturer, Fc-tagged human/mouse/rat MuSK was immobilized on a Protein G chip or a Protein A chip (Cytiva). A running buffer for the monomer/dimer peptides contained 0.010 M phosphate, 0.14 M NaCl, 0.0027 M KCl, 0.05% (v/v) Tween 20, and 0.1% (v/v) DMSO. A running buffer for the monomer/dimer U-bodies contained 0.010 M phosphate, 0.14 M NaCl, 0.0027 M KCl, and 0.05% (v/v) Tween 20. A series of concentrations of each monomer peptide, dimer peptide, monomer U-body, and dimer U-body was injected as analytes. A 1:1 binding fitting analysis was applied using Biacore evaluation software, and ka, kd, and KD values were determined.
# Fc-tagged human MuSK was prepared according to the procedure described in Example 1(1). In addition, Fc-tagged mouse MuSK was used by expressing a nucleotide sequence encoding the Fc-tagged mouse MuSK extracellular domain (SEQ ID NO: 34). In addition, Fc-tagged rat MuSK was used as a chimeric protein of rat MuSK and an Fc protein, namely, Recombinant Rat MuSK Fc Chimera Protein (catalog number: 9847-MK-050, R&D Systems).
# The affinity of the U-bodies and their complexes obtained as described above for MuSK of human, rat, and mouse was evaluated (binding activity test). The test was carried out according to the procedure described in Example 1(3). However, for the complexes of U-bodies, surface plasmon resonance (SPR) analysis was carried out using a Biacore 8K (Cytiva).
# [3] = 25°C, Fc-tagged human MuSK immobilized, monomer peptides, read-out: Binding activity (KD)
Compound,number of AChR clusters [1],"koff (human MuSK; human MuSK, peptide homodimers) [s⁻¹]","kon (human MuSK; human MuSK, peptide homodimers) [M⁻¹ s⁻¹]",further results
C[C@@]1(C(=O)Nc2ccc(F)nc2)CCCN1c1nc(Nc2cc(C3CC3)n[nH]2)c2cccn2n1 [BMS-754807],comparable to that in the negative control group (DMSO alone),,,
"CC(C)C[C@@H]1NC(=O)[C@H](CO)NC(=O)[C@H](C)NC(=O)[C@H](C(C)C)NC(=O)[C@H](C(C)C)NC(=O)[C@H](CC(N)=O)NC(=O)[C@H]([C@@H](C)O)NC(=O)[C@H](Cc2c[nH]cn2)NC(=O)[C@H](Cc2ccc(O)cc2)NC(=O)[C@H](CO)NC(=O)[C@@H]2CCCN2C(=O)[C@@H](Cc2ccc(O)cc2)NC(=O)CSC[C@@H](C(=O)N[C@@H](CSC2CC(=O)N(CCC(=O)NCCOCCOCCOCCOCCOCCOCCOCCOCCOCCOCCOCCNC(=O)CCN3C(=O)CC(SC[C@H](NC(=O)[C@@H]4CSCC(=O)N[C@H](Cc5ccc(O)cc5)C(=O)N5CCC[C@H]5C(=O)N[C@@H](CO)C(=O)N[C@@H](Cc5ccc(O)cc5)C(=O)N[C@@H](Cc5c[nH]cn5)C(=O)N[C@@H]([C@@H](C)O)C(=O)N[C@@H](CC(N)=O)C(=O)N[C@@H](C(C)C)C(=O)N[C@@H](C(C)C)C(=O)N[C@@H](C)C(=O)N[C@@H](CO)C(=O)N[C@@H](CC(C)C)C(=O)N[C@@H](CCCCN)C(=O)N[C@@H](CCCNC(=N)N)C(=O)N4)C(N)=O)C3=O)C2=O)C(N)=O)NC(=O)[C@H](CCCNC(=N)N)NC(=O)[C@H](CCCCN)NC1=O (stereo partly shown) [MuSK7 PEG11 dimer] (I: {CH2CO}-[dY]PSYHTNVVASLKRCC-NH2 / II: {CH2CO}-[dY]PSYHTNVVASLKRCC-NH2; linker I:16-II:16 via X1; thioether I:N-I:15, II:N-II:15)",,0.00051,390000,"number of AChR clusters ([2]; compound concentration exceeded 1 µM): conversely tended to decrease; number of AChR clusters ([2]; concentration range from the pM order to 1 µM): increased in a dose-dependent manner; Kd (human MuSK; human MuSK, peptide homodimers, read-out: Kd): 1.3 nM"
CNC(=O)c1cc(Oc2ccc(NC(=O)Nc3ccc(Cl)c(C(F)(F)F)c3)cc2)ccn1 [Sorafenib],,,,MuSK inhibitory effects [1]: weaker MuSK inhibitory effects compared with AST-487
C[C@@H](Oc1cc(-c2cnn(C3CCNCC3)c2)cnc1N)c1c(Cl)ccc(F)c1Cl [Crizotinib],comparable to that in the negative control group (DMSO alone),,,
C=CC(=O)Nc1ccc2ncnc(Nc3ccc(OCc4cccc(F)c4)c(Cl)c3)c2c1 [AST-1306],comparable to that in the negative control group (DMSO alone),,,
I: Ac-[dY]LPEFSWPESFVLFLRQRQRQLGRGAEC-NH2 / II: Ac-[dY]LPEFSWPESFVLFLRQRQRQLGRGAEC-NH2 (linker I:28-II:28 via X1) [MuSK1Ac Term PEG11 dimer],,0.0018,520000,
I: Ac-C[dY]LPEFSWPESFVLFLRQRQRQLGRGAE-NH2 / II: Ac-C[dY]LPEFSWPESFVLFLRQRQRQLGRGAE-NH2 (linker I:1-II:1 via X2) [MuSK1Ac PEG3 dimer],,0.0013,300000,
CC(=O)N[C@H](Cc1ccc(O)cc1)C(=O)N[C@@H](CC(C)C)C(=O)N1CCC[C@H]1C(=O)N[C@@H](CCC(=O)O)C(=O)N[C@@H](Cc1ccccc1)C(=O)N[C@@H](CO)C(=O)N[C@@H](Cc1c[nH]c2ccccc12)C(=O)N1CCC[C@H]1C(=O)N[C@@H](CCC(=O)O)C(=O)N[C@@H](CO)C(=O)N[C@@H](Cc1ccccc1)C(=O)N[C@H](C(=O)N[C@@H](CC(C)C)C(=O)N[C@@H](Cc1ccccc1)C(=O)N[C@@H](CC(C)C)C(=O)N[C@@H](CCCNC(=N)N)C(=O)N[C@@H](CCC(N)=O)C(=O)N[C@@H](CCCNC(=N)N)C(=O)N[C@@H](CCC(N)=O)C(=O)N[C@@H](CCCNC(=N)N)C(=O)N[C@@H](CCC(N)=O)C(=O)N[C@@H](CC(C)C)C(=O)NCC(=O)N[C@@H](CCCNC(=N)N)C(=O)NCC(=O)N[C@@H](C)C(=O)N[C@@H](CCC(=O)O)C(N)=O)C(C)C [MuSK1Ac] (Ac-[dY]LPEFSWPESFVLFLRQRQRQLGRGAE-NH2),,,,Kd (human MuSK; [3]): 1.6 nM
CC(C)C[C@H](NC(=O)[C@H](CCC(N)=O)NC(=O)[C@H](CCCNC(=N)N)NC(=O)[C@H](CCC(N)=O)NC(=O)[C@H](CCCNC(=N)N)NC(=O)[C@H](CCC(N)=O)NC(=O)[C@H](CCCNC(=N)N)NC(=O)[C@H](CC(C)C)NC(=O)[C@H](Cc1ccccc1)NC(=O)[C@H](CC(C)C)NC(=O)[C@@H](NC(=O)[C@H](Cc1ccccc1)NC(=O)[C@H](CO)NC(=O)[C@H](CCC(=O)O)NC(=O)[C@@H]1CCCN1C(=O)[C@H](Cc1c[nH]c2ccccc12)NC(=O)[C@H](CO)NC(=O)[C@H](Cc1ccccc1)NC(=O)[C@H](CCC(=O)O)NC(=O)[C@@H]1CCCN1C(=O)[C@H](CC(C)C)NC(=O)[C@@H](Cc1ccc(O)cc1)NC(=O)CCl)C(C)C)C(=O)NCC(=O)N[C@@H](CCCNC(=N)N)C(=O)NCC(=O)N[C@@H](C)C(=O)N[C@@H](CCC(=O)O)C(N)=O [MuSK1] (ClAc-[dY]LPEFSWPESFVLFLRQRQRQLGRGAE-NH2),,,,Kd (human MuSK; [3]): 2.2 nM
COc1cc2c(Oc3ccc(NC(=O)C4(C(=O)Nc5ccc(F)cc5)CC4)cc3F)ccnc2cc1OCCCN1CCOCC1 [Foretinib],,,,MuSK inhibitory effects [1]: weaker MuSK inhibitory effects compared with AST-487

# Reference: patent publication EP4722228A1, “NEW COMPOUND TARGETING MUSK AND USE THEREOF” (The University of Tokyo, priority 2023, dated 2024)
